Data from article PMC7306040, “Exploring the abundance of oleate hydratases in the genus Rhodococcus—discovery of novel enzymes with complementary substrate scope” (Applied Microbiology and Biotechnology, 2020).

Key:
RpOhy (DSM 20415) [1] = molecular target: T1, RpOhy (DSM 20415) (Rhodococcus pyridinivorans, UniProt A0A7T7LF34); assay: coupled assay with alcohol dehydrogenase ADH010, NADH at […] nm; assay type: biochemical; settings: apparent cooperative, Hill n 2.45 ± 0.47; 2 mM NAD+, 50 mM PIPES pH 6.5, 10% DMSO; read-out: K0.5
T1 construct: gene INP59_15660; N-terminally His6-tagged, codon-optimised, pBAD/His A, E. coli TOP10; Ni-NTA and SEC; monomer, dimer and larger aggregates
T1 sequence (A0A7T7LF34 1-601): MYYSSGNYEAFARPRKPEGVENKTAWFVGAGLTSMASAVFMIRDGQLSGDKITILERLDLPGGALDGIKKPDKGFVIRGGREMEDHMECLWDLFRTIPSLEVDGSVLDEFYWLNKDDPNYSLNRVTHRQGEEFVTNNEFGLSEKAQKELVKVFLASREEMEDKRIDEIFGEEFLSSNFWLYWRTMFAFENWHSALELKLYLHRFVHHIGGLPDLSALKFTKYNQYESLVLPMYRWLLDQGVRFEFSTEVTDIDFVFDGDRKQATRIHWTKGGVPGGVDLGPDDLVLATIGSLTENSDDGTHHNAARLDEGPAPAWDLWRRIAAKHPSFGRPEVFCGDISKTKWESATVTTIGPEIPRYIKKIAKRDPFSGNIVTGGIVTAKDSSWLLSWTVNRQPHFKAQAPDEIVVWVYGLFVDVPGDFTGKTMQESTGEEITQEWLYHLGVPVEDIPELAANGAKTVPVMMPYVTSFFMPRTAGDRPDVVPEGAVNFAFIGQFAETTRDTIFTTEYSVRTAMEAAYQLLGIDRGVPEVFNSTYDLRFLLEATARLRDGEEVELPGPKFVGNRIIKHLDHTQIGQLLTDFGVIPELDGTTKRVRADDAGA

RpOhy (DSM 20415) [2] = molecular target: T1, RpOhy (DSM 20415); assay: yellow colour of purified enzyme; oleic acid conversion with […] added FAD; assay type: binding; settings: 20 mM acetate pH 5, 25 °C, 500 uM oleic acid, 1% DMSO

SMILES | Km (RpOhy (DSM 20415) [1]) | yellow colour of purified enzyme; oleic acid conversion with 0-100 uM added FAD (RpOhy (DSM 20415) [2])
CCCCCCCC/C=C\CCCCCCCC(=O)O [compound 3, Oleic acid] | 720 ± 70 µM | –
Cc1cc2nc3c(=O)[nH]c(=O)nc-3n(C[C@H](O)[C@H](O)[C@H](O)COP(=O)(O)OP(=O)(O)OC[C@H]3O[C@@H](n4cnc5c(N)ncnc54)[C@H](O)[C@@H]3O)c2cc1C [FAD] | – | yellow colour indicating that the FAD cofactor was incorporated in the enzyme
